{"source": "paper PMC5218480", "about": "(PLoS ONE, 2017)", "test_system": "MV-4-11 cells", "test": "Gene expression microarray analysis (Affymetrix PrimeView) and GSEA", "format": "cell-based, human", "design": "RFU PODN (11730768_x_at) / Fold change /veh PODN (11730768_x_at) / RFU LINC00158 (11744669_a_at) / Fold change /veh LINC00158 (11744669_a_at) / RFU DUSP10 (11751237_a_at) / Fold change /veh DUSP10 (11751237_a_at) / RFU ID3 (11757404_x_at) / Fold change /veh ID3 (11757404_x_at) / RFU PLEKHG5 (11737974_s_at) / Fold change /veh PLEKHG5 (11737974_s_at) / RFU LRRC4B (11730491_at) / Fold change /veh LRRC4B (11730491_at) / RFU GIMAP4 (11747438_a_at) / Fold change /veh GIMAP4 (11747438_a_at) / RFU KRT8 (11758183_x_at) / Fold change /veh KRT8 (11758183_x_at) / RFU CNN1 (11734310_a_at) / Fold change /veh CNN1 (11734310_a_at) / RFU VPS37D (11726825_at) / Fold change /veh VPS37D (11726825_at) / RFU C10orf10 (11716522_x_at) / Fold change /veh C10orf10 (11716522_x_at) / RFU KIR2DL2 /// KIR2DL4 /// KIR2DL5A /// KIR2DL5B /// KIR2DS1 /// KIR2DS2 /// KIR2DS3 /// KIR2DS4 /// KIR3DL3 /// KIR3DL3 /// KIR3DS1 (11738374_at) / Fold change /veh KIR2DL2 /// KIR2DL4 /// KIR2DL5A /// KIR2DL5B /// KIR2DS1 /// KIR2DS2 /// KIR2DS3 /// KIR2DS4 /// KIR3DL3 /// KIR3DL3 /// KIR3DS1 (11738374_at) / RFU C1QL1 (11718748_at) / Fold change /veh C1QL1 (11718748_at) / RFU TMPRSS4 (11747572_a_at) / Fold change /veh TMPRSS4 (11747572_a_at) / RFU HAMP (11756126_x_at) / Fold change /veh HAMP (11756126_x_at) / RFU RNFT2 (11725882_a_at) / Fold change /veh RNFT2 (11725882_a_at) / RFU NR4A2 (11747474_a_at) / Fold change /veh NR4A2 (11747474_a_at) / RFU ABCC12 (11746883_a_at) / Fold change /veh ABCC12 (11746883_a_at) / RFU TMEM136 (11760407_x_at) / Fold change /veh TMEM136 (11760407_x_at) / RFU CLDN22 /// WWC2 (11732394_at) / Fold change /veh CLDN22 /// WWC2 (11732394_at) / RFU HLA-DPB1 (11760878_x_at) / Fold change /veh HLA-DPB1 (11760878_x_at) / RFU SPINT1 (11716480_a_at) / Fold change /veh SPINT1 (11716480_a_at) / RFU GAP43 (11754022_s_at) / Fold change /veh GAP43 (11754022_s_at) / RFU A4GNT (11735810_at) / Fold change /veh A4GNT (11735810_at) / RFU PRB3 (11715151_x_at) / Fold change /veh PRB3 (11715151_x_at) / RFU TUBB4B (11761932_at) / Fold change /veh TUBB4B (11761932_at) / RFU CAPN14 (11732068_a_at) / Fold change /veh CAPN14 (11732068_a_at) / RFU TMCC2 (11721928_a_at) / Fold change /veh TMCC2 (11721928_a_at) / RFU IRGQ (11745062_a_at) / Fold change /veh IRGQ (11745062_a_at) / RFU FAM174B (11720279_a_at) / Fold change /veh FAM174B (11720279_a_at) / RFU TMPRSS4 (11748680_a_at) / Fold change /veh TMPRSS4 (11748680_a_at) / RFU FAM212B (11763350_a_at) / Fold change /veh FAM212B (11763350_a_at) / RFU PLEKHG5 (11743358_a_at) / Fold change /veh PLEKHG5 (11743358_a_at) / RFU ZSCAN30 (11745921_a_at) / Fold change /veh ZSCAN30 (11745921_a_at) / RFU CMKLR1 (11741424_a_at) / Fold change /veh CMKLR1 (11741424_a_at) / RFU LOC101060620 /// MAPK8IP1 (11723275_at) / Fold change /veh LOC101060620 /// MAPK8IP1 (11723275_at) / RFU SPTSSB (11747773_x_at) / Fold change /veh SPTSSB (11747773_x_at) / RFU PRSS12 (11739890_at) / Fold change /veh PRSS12 (11739890_at) / RFU BIN1 (11741810_x_at) / Fold change /veh BIN1 (11741810_x_at) / RFU WNT11 (11732464_a_at) / Fold change /veh WNT11 (11732464_a_at) / RFU C10orf10 (11716521_a_at) / Fold change /veh C10orf10 (11716521_a_at) / RFU C5orf56 (11738089_at) / Fold change /veh C5orf56 (11738089_at) / RFU CYB561 (11721691_x_at) / Fold change /veh CYB561 (11721691_x_at) / RFU ANKRD19P (11752326_a_at) / Fold change /veh ANKRD19P (11752326_a_at) / RFU OR2T12 /// OR2T33 /// OR2T8 (11738714_s_at) / Fold change /veh OR2T12 /// OR2T33 /// OR2T8 (11738714_s_at) / RFU VCAN (11748164_a_at) / Fold change /veh VCAN (11748164_a_at) / RFU JSRP1 (11732532_at) / Fold change /veh JSRP1 (11732532_at) / RFU KRTAP10-11 (11738290_x_at) / Fold change /veh KRTAP10-11 (11738290_x_at) / RFU MYO3A (11730013_a_at) / Fold change /veh MYO3A (11730013_a_at) / RFU EBF3 (11725865_a_at) / Fold change /veh EBF3 (11725865_a_at) / RFU CAMK2N1 (11719241_x_at) / Fold change /veh CAMK2N1 (11719241_x_at) / RFU C5orf56 (11738088_a_at) / Fold change /veh C5orf56 (11738088_a_at) / RFU OLFML3 (11715873_a_at) / Fold change /veh OLFML3 (11715873_a_at) / RFU LOC100653217 /// NTM (11731650_a_at) / Fold change /veh LOC100653217 /// NTM (11731650_a_at) / RFU MAPK11 (11762145_a_at) / Fold change /veh MAPK11 (11762145_a_at) / RFU FIZ1 (11724087_x_at) / Fold change /veh FIZ1 (11724087_x_at) / RFU OASL (11726364_x_at) / Fold change /veh OASL (11726364_x_at) / RFU SOX15 (11748057_x_at) / Fold change /veh SOX15 (11748057_x_at) / RFU CD79A (11719716_a_at) / Fold change /veh CD79A (11719716_a_at) / RFU HIST1H1D (11736915_at) / Fold change /veh HIST1H1D (11736915_at) / RFU CASKIN2 (11723855_a_at) / Fold change /veh CASKIN2 (11723855_a_at) / RFU LOC730098 (11760151_x_at) / Fold change /veh LOC730098 (11760151_x_at) / RFU OR4N2 (11742367_at) / Fold change /veh OR4N2 (11742367_at) / RFU PRRT2 (11749266_a_at) / Fold change /veh PRRT2 (11749266_a_at) / RFU SNX32 (11753110_a_at) / Fold change /veh SNX32 (11753110_a_at) / RFU CDHR5 (11726645_a_at) / Fold change /veh CDHR5 (11726645_a_at) / RFU RCAN1 (11760418_a_at) / Fold change /veh RCAN1 (11760418_a_at) / RFU FAM167A (11723789_a_at) / Fold change /veh FAM167A (11723789_a_at) / RFU FAM26E (11764081_at) / Fold change /veh FAM26E (11764081_at) / RFU ISYNA1 (11749810_s_at) / Fold change /veh ISYNA1 (11749810_s_at) / RFU ACY1 (11761880_at) / Fold change /veh ACY1 (11761880_at) / RFU 11764098_at / Fold change /veh 11764098_at / RFU SAMD14 (11745864_x_at) / Fold change /veh SAMD14 (11745864_x_at) / RFU NPB (11741838_a_at) / Fold change /veh NPB (11741838_a_at) / RFU TMPRSS6 (11731388_a_at) / Fold change /veh TMPRSS6 (11731388_a_at) / RFU KRTAP10-2 (11738614_at) / Fold change /veh KRTAP10-2 (11738614_at) / RFU ARHGAP8 /// PRR5-ARHGAP8 (11727945_x_at) / Fold change /veh ARHGAP8 /// PRR5-ARHGAP8 (11727945_x_at) / RFU KRTAP5-7 /// NADSYN1 (11734609_at) / Fold change /veh KRTAP5-7 /// NADSYN1 (11734609_at) / RFU RASL12 (11751679_a_at) / Fold change /veh RASL12 (11751679_a_at) / RFU CDKN2B (11736163_a_at) / Fold change /veh CDKN2B (11736163_a_at) / RFU PRF1 (11729649_at) / Fold change /veh PRF1 (11729649_at) / RFU, ZNF638 /// ZNF638-IT1 / Fold change vs veh, ZNF638 /// ZNF638-IT1 / RFU, PANK3 / Fold change vs veh, PANK3 / RFU, SH3YL1 / Fold change vs veh, SH3YL1 / RFU, ZEB2 / Fold change vs veh, ZEB2 / RFU, NRIP1 / Fold change vs veh, NRIP1 / RFU, PTTG1IP / Fold change vs veh, PTTG1IP / RFU, CAPN2 / Fold change vs veh, CAPN2 / RFU, MED14 / Fold change vs veh, MED14 / RFU, SNORA58 / Fold change vs veh, SNORA58 / RFU, C1orf63 / Fold change vs veh, C1orf63 / RFU, LRRFIP1 / Fold change vs veh, LRRFIP1 / RFU, NDUFAF7 / Fold change vs veh, NDUFAF7 / RFU, SLC12A2 / Fold change vs veh, SLC12A2 / RFU, IBTK / Fold change vs veh, IBTK / RFU, ESF1 / Fold change vs veh, ESF1 / Fold change vs veh, TMEM50B / RFU, TAOK1 / Fold change vs veh, TAOK1 / RFU, ACBD3 / Fold change vs veh, ACBD3 / RFU, TMA16 / Fold change vs veh, TMA16 / RFU, RWDD3 / Fold change vs veh, RWDD3 / RFU, BCAT1 / Fold change vs veh, BCAT1 / RFU, EDEM3 / Fold change vs veh, EDEM3 / RFU, TMEM33 / Fold change vs veh, TMEM33 / RFU, WDR75 / Fold change vs veh, WDR75 / RFU, AHCTF1 / Fold change vs veh, AHCTF1 / RFU, TFRC / Fold change vs veh, TFRC / RFU, ZDHHC17 / Fold change vs veh, ZDHHC17 / RFU, NOM1 / Fold change vs veh, NOM1 / RFU, ARL8B / Fold change vs veh, ARL8B / RFU, ZBTB11 / Fold change vs veh, ZBTB11 / RFU, TAMM41 / Fold change vs veh, TAMM41 / RFU, KIAA1704 /// LOC100996395 / Fold change vs veh, KIAA1704 /// LOC100996395 / RFU, ING1 / Fold change vs veh, ING1 / RFU, TRMT61B / Fold change vs veh, TRMT61B / RFU, FUBP3 / Fold change vs veh, FUBP3 / RFU, TP53 / Fold change vs veh, TP53 / RFU, TNKS2 / Fold change vs veh, TNKS2 / RFU, ZFP14 / Fold change vs veh, ZFP14 / RFU, ACTR2 / Fold change vs veh, ACTR2 / RFU, PPP3R1 / Fold change vs veh, PPP3R1 / RFU, PIK3R1 / Fold change vs veh, PIK3R1 / RFU, HNRNPA1 / Fold change vs veh, HNRNPA1 / RFU, RNF170 / Fold change vs veh, RNF170 / RFU, ZNF28 / Fold change vs veh, ZNF28 / RFU, RNGTT / Fold change vs veh, RNGTT / RFU, OGT / Fold change vs veh, OGT / RFU, BRD1 / Fold change vs veh, BRD1 / RFU, MARS / Fold change vs veh, MARS / RFU, ZNF655 / Fold change vs veh, ZNF655 / RFU, FAHD1 / Fold change vs veh, FAHD1 / RFU, BDP1 / Fold change vs veh, BDP1 / RFU, LRRCC1 / Fold change vs veh, LRRCC1 / RFU, ARID1A / Fold change vs veh, ARID1A / RFU, ZNF146 / Fold change vs veh, ZNF146 / RFU, ZNF330 / Fold change vs veh, ZNF330 / RFU, GPN3 / Fold change vs veh, GPN3 / RFU, C9orf123 / Fold change vs veh, C9orf123 / RFU, N4BP2L2 / Fold change vs veh, N4BP2L2 / RFU, ARFIP1 / Fold change vs veh, ARFIP1 / RFU, FAM179B / Fold change vs veh, FAM179B / RFU, BCL10 / Fold change vs veh, BCL10 / RFU, UHRF1BP1L / Fold change vs veh, UHRF1BP1L / RFU, BET1 / Fold change vs veh, BET1 / RFU, CNOT2 / Fold change vs veh, CNOT2 / RFU, ZNF268 / Fold change vs veh, ZNF268 / Fold change vs veh, ZNF507 / RFU, DGCR2 / Fold change vs veh, DGCR2 / RFU, WDSUB1 / Fold change vs veh, WDSUB1 / Fold change vs veh, HSP90B1 /// MIR3652 / RFU, ADSS / Fold change vs veh, ADSS / RFU, GK / Fold change vs veh, GK / RFU, ZNF148 / Fold change vs veh, ZNF148 / RFU, TAF9 / Fold change vs veh, TAF9 / RFU, SLC1A5 / Fold change vs veh, SLC1A5 / RFU, SLMO2 / Fold change vs veh, SLMO2 / RFU, ABCC4 / Fold change vs veh, ABCC4 / RFU, LOC101060439 /// RAP1B / Fold change vs veh, LOC101060439 /// RAP1B / RFU, RFX7 / Fold change vs veh, RFX7 / RFU, GTPBP10 / Fold change vs veh, GTPBP10 / RFU, CNEP1R1 / Fold change vs veh, CNEP1R1 / RFU, BIVM-ERCC5 /// ERCC5 / Fold change vs veh, BIVM-ERCC5 /// ERCC5 / RFU, ILF3 / Fold change vs veh, ILF3 / RFU 11762660_at / Fold change /veh 11762660_at / RFU VCAN (11757783_s_at) / Fold change /veh VCAN (11757783_s_at) / RFU DDX43 (11728927_at) / Fold change /veh DDX43 (11728927_at) / RFU KRT8 (11758188_x_at) / Fold change /veh KRT8 (11758188_x_at) / RFU NKD1 (11759106_at) / Fold change /veh NKD1 (11759106_at) / RFU SRD5A1 (11742802_a_at) / Fold change /veh SRD5A1 (11742802_a_at) / RFU TPSAB1 /// TPSB2 (11721975_s_at) / Fold change /veh TPSAB1 /// TPSB2 (11721975_s_at) / RFU GSTM3 (11746129_a_at) / Fold change /veh GSTM3 (11746129_a_at) / RFU IL23R (11737362_x_at) / Fold change /veh IL23R (11737362_x_at) / RFU TMEM51 (11727254_a_at) / Fold change /veh TMEM51 (11727254_a_at) / RFU PIWIL2 (11732686_x_at) / Fold change /veh PIWIL2 (11732686_x_at) / RFU ORM1 (11744905_x_at) / Fold change /veh ORM1 (11744905_x_at) / RFU CCDC152 (11743942_at) / Fold change /veh CCDC152 (11743942_at) / RFU ECM1 (11717891_a_at) / Fold change /veh ECM1 (11717891_a_at) / RFU IL23R (11748794_a_at) / Fold change /veh IL23R (11748794_a_at) / RFU TNFAIP8L3 (11732012_x_at) / Fold change /veh TNFAIP8L3 (11732012_x_at) / RFU MBOAT4 (11741988_at) / Fold change /veh MBOAT4 (11741988_at) / RFU 11764193_at / Fold change /veh 11764193_at / RFU TMEM53 (11763286_at) / Fold change /veh TMEM53 (11763286_at) / RFU MAGEB2 (11727129_at) / Fold change /veh MAGEB2 (11727129_at) / RFU TMEM200A (11744735_a_at) / Fold change /veh TMEM200A (11744735_a_at) / RFU CCDC152 (11751479_a_at) / Fold change /veh CCDC152 (11751479_a_at) / RFU FAM211A (11726209_a_at) / Fold change /veh FAM211A (11726209_a_at) / RFU RGS16 (11746705_a_at) / Fold change /veh RGS16 (11746705_a_at) / RFU VCAN (11755009_s_at) / Fold change /veh VCAN (11755009_s_at) / RFU RHOB (11743442_s_at) / Fold change /veh RHOB (11743442_s_at) / RFU RGS16 (11720943_a_at) / Fold change /veh RGS16 (11720943_a_at) / RFU RGS16 (11720944_at) / Fold change /veh RGS16 (11720944_at) / RFU, VPS4B / Fold change vs veh, VPS4B / RFU, CREB1 / Fold change vs veh, CREB1 / RFU, DNAJC13 / Fold change vs veh, DNAJC13 / RFU, GNAQ / Fold change vs veh, GNAQ / RFU, CDK5R1 / Fold change vs veh, CDK5R1 / RFU, ZRANB3 / Fold change vs veh, ZRANB3 / RFU, CUL4A / Fold change vs veh, CUL4A / RFU, CCNY / Fold change vs veh, CCNY / RFU, UFL1 / Fold change vs veh, UFL1 / RFU, COG3 / Fold change vs veh, COG3 / RFU, DIAPH2 / Fold change vs veh, DIAPH2 / RFU, SKA2 / Fold change vs veh, SKA2 / RFU, AFF3 / Fold change vs veh, AFF3 / RFU, LMF1 / Fold change vs veh, LMF1 / RFU, IPO11 / Fold change vs veh, IPO11 / RFU, DFFB / Fold change vs veh, DFFB / RFU, FOXP1 / Fold change vs veh, FOXP1 / RFU, CARD8 / Fold change vs veh, CARD8 / RFU, STRN3 / Fold change vs veh, STRN3 / RFU, ADK / Fold change vs veh, ADK / RFU, RASSF2 / Fold change vs veh, RASSF2 / RFU, WIPF1 / Fold change vs veh, WIPF1 / RFU, LARP1B / Fold change vs veh, LARP1B / RFU, RASA1 / Fold change vs veh, RASA1 / RFU, RB1 / Fold change vs veh, RB1 / RFU, PPFIA1 / Fold change vs veh, PPFIA1 / RFU, MAT2A / Fold change vs veh, MAT2A / RFU, CCT5 / Fold change vs veh, CCT5 / RFU, WDR92 / Fold change vs veh, WDR92 / RFU, CUX1 / Fold change vs veh, CUX1 / RFU, TTC7A / Fold change vs veh, TTC7A / RFU, TMEM135 / Fold change vs veh, TMEM135 / RFU, DEPTOR / Fold change vs veh, DEPTOR / RFU, CPM / Fold change vs veh, CPM / RFU, DNAJB6 / Fold change vs veh, DNAJB6 / RFU, CACNA2D3 / Fold change vs veh, CACNA2D3 / RFU, DTX4 / Fold change vs veh, DTX4 / RFU, TFCP2 / Fold change vs veh, TFCP2 / RFU, GMCL1 /// GMCL1P1 / Fold change vs veh, GMCL1 /// GMCL1P1 / RFU, AEBP2 / Fold change vs veh, AEBP2 / RFU, SNHG1 /// SNORD22 /// SNORD25 /// SNORD26 /// SNORD27 /// SNORD28 /// SNORD29 /// SNORD31 / Fold change vs veh, SNHG1 /// SNORD22 /// SNORD25 /// SNORD26 /// SNORD27 /// SNORD28 /// SNORD29 /// SNORD31 / Fold change (Aza/veh), C12orf56 (ProbeSet 11735607_a_at) / Fold change (ACY-1035/veh), C12orf56 (ProbeSet 11735607_a_at) / Fold change (Aza/veh), FGFR1OP (ProbeSet 11751329_s_at) / Fold change (ACY-1035/veh), FGFR1OP (ProbeSet 11751329_s_at) / Fold change (Aza/veh), VPS36 (ProbeSet 11739960_a_at) / Fold change (ACY-1035/veh), VPS36 (ProbeSet 11739960_a_at) / RFU SYPL1 (11715823_x_at) / Fold change /veh SYPL1 (11715823_x_at) / RFU IGFBP7 (11715501_s_at) / Fold change /veh IGFBP7 (11715501_s_at) / RFU REEP3 (11722064_at) / Fold change /veh REEP3 (11722064_at) / RFU IGLL1 (11728026_x_at) / Fold change /veh IGLL1 (11728026_x_at): dose or concentration left out as unconfirmed", "conditions": "MV-4-11 cells, 48 hours"}
{"smiles": "Nc1ncn([C@@H]2O[C@H](CO)[C@@H](O)[C@H]2O)c(=O)n1", "note": "[azacitidine]", "values": [{"measurement": "RFU 11764098_at", "result": 18.12, "unit": "RFU"}]}
